From ChEMBL document CHEMBL5385845, “Novel coumarin aminophosphonates as potential multitargeting antibacterial agents against Staphylococcus aureus” (Eur J Med Chem, 2023)
In brackets after ≈: the same amount, converted by molar mass.

Columns and labels:
Format in all cases: functional
[1] = tested on: Staphylococcus aureus; assay: Antibacterial activity against methicillin resistant Staphylococcus aureus N315 assessed as inhibition of bacterial growth
[2] = tested on: Enterococcus faecalis; assay: Antibacterial activity against Enterococcus faecalis assessed as inhibition of bacterial growth
[3] = tested on: Staphylococcus aureus; assay: Antibacterial activity against Staphylococcus aureus assessed as inhibition of bacterial growth
[4] = tested on: Staphylococcus aureus; assay: Antibacterial activity against Staphylococcus aureus ATCC 25923 assessed as inhibition of bacterial growth
[5] = tested on: Staphylococcus aureus; assay: Antibacterial activity against Staphylococcus aureus ATCC 29213 assessed as inhibition of bacterial growth
[6] = tested on: Klebsiella pneumoniae; assay: Antibacterial activity against Klebsiella pneumoniae assessed as inhibition of bacterial growth
[7] = tested on: Escherichia coli; assay: Antibacterial activity against Escherichia coli assessed as inhibition of bacterial growth
[8] = tested on: Pseudomonas aeruginosa; assay: Antibacterial activity against Pseudomonas aeruginosa assessed as inhibition of bacterial growth
[9] = tested on: Acinetobacter baumannii; assay: Antibacterial activity against Acinetobacter baumannii assessed as inhibition of bacterial growth
[10] = tested on: Pseudomonas aeruginosa; assay: Antibacterial activity against Pseudomonas aeruginosa ATCC 27853 assessed as inhibition of bacterial growth
[11] = tested on: Escherichia coli; assay: Antibacterial activity against Escherichia coli ATCC 25922 assessed as inhibition of bacterial growth

SMILES: CCOP(=O)(OCC)C(Nc1ccc2c(C)cc(=O)oc2c1)c1ccccc1F (stereo unspecified)
- MIC [1]: 64 µg/mL (≈ 153 µM)
- MIC [2]: 64 µg/mL (≈ 153 µM)
- MIC [3]: 16 µg/mL (≈ 38.2 µM)
- MIC [4]: 64 µg/mL (≈ 153 µM)
- MIC [5]: 64 µg/mL (≈ 153 µM)
- MIC [6]: 128 µg/mL (≈ 305 µM)
- MIC [7]: 128 µg/mL (≈ 305 µM)
- MIC [8]: 256 µg/mL (≈ 610 µM)
- MIC [9]: 64 µg/mL (≈ 153 µM)
- MIC [10]: 32 µg/mL (≈ 76.3 µM)
- MIC [11]: 64 µg/mL (≈ 153 µM)

SMILES: CCOP(=O)(OCC)C(Nc1ccc2c(C)cc(=O)oc2c1)c1ccc(C#N)cc1 (stereo unspecified)
- MIC [1]: 128 µg/mL (≈ 300 µM)
- MIC [2]: 64 µg/mL (≈ 150 µM)
- MIC [3]: 128 µg/mL (≈ 300 µM)
- MIC [4]: 256 µg/mL (≈ 600 µM)
- MIC [5]: 64 µg/mL (≈ 150 µM)
- MIC [6]: 128 µg/mL (≈ 300 µM)
- MIC [7]: 128 µg/mL (≈ 300 µM)
- MIC [8]: 64 µg/mL (≈ 150 µM)
- MIC [9]: 128 µg/mL (≈ 300 µM)
- MIC [10]: 128 µg/mL (≈ 300 µM)
- MIC [11]: 128 µg/mL (≈ 300 µM)

SMILES: CCOP(=O)(OCC)C(Nc1ccc2c(C)c(C)c(=O)oc2c1)c1cccc(O)c1 (stereo unspecified)
- MIC [1]: 128 µg/mL (≈ 297 µM)
- MIC [2]: 32 µg/mL (≈ 74.2 µM)
- MIC [3]: 32 µg/mL (≈ 74.2 µM)
- MIC [4]: 64 µg/mL (≈ 148 µM)
- MIC [5]: 16 µg/mL (≈ 37.1 µM)
- MIC [6]: 64 µg/mL (≈ 148 µM)
- MIC [7]: 32 µg/mL (≈ 74.2 µM)
- MIC [8]: 128 µg/mL (≈ 297 µM)
- MIC [9]: 256 µg/mL (≈ 593 µM)
- MIC [10]: 16 µg/mL (≈ 37.1 µM)
- MIC [11]: 64 µg/mL (≈ 148 µM)

SMILES: CCOP(=O)(OCC)C(Nc1cc2ccccc2oc1=O)c1cccc(O)c1 (stereo unspecified)
- MIC [1]: 32 µg/mL (≈ 79.3 µM)
- MIC [2]: 16 µg/mL (≈ 39.7 µM)
- MIC [3]: 8 µg/mL (≈ 19.8 µM)
- MIC [4]: 8 µg/mL (≈ 19.8 µM)
- MIC [5]: 32 µg/mL (≈ 79.3 µM)
- MIC [6]: 128 µg/mL (≈ 317 µM)
- MIC [7]: 64 µg/mL (≈ 159 µM)
- MIC [8]: 32 µg/mL (≈ 79.3 µM)
- MIC [9]: 16 µg/mL (≈ 39.7 µM)
- MIC [10]: 4 µg/mL (≈ 9.92 µM)
- MIC [11]: 32 µg/mL (≈ 79.3 µM)

SMILES: CCOP(=O)(OCC)C(Nc1ccc2c(C)cc(=O)oc2c1)c1ccc(Cl)cc1Cl (stereo unspecified)
- MIC [1]: 128 µg/mL (≈ 272 µM)
- MIC [2]: 64 µg/mL (≈ 136 µM)
- MIC [3]: 128 µg/mL (≈ 272 µM)
- MIC [4]: 128 µg/mL (≈ 272 µM)
- MIC [5]: 128 µg/mL (≈ 272 µM)
- MIC [6]: 64 µg/mL (≈ 136 µM)
- MIC [7]: 32 µg/mL (≈ 68 µM)
- MIC [8]: 128 µg/mL (≈ 272 µM)
- MIC [9]: 64 µg/mL (≈ 136 µM)
- MIC [10]: 64 µg/mL (≈ 136 µM)
- MIC [11]: 128 µg/mL (≈ 272 µM)

SMILES: CCOP(=O)(OCC)C(Nc1ccc2c(C)cc(=O)oc2c1)c1cccc(Cl)c1O (stereo unspecified)
- MIC [1]: 64 µg/mL (≈ 142 µM)
- MIC [2]: 128 µg/mL (≈ 283 µM)
- MIC [3]: 32 µg/mL (≈ 70.8 µM)
- MIC [4]: 64 µg/mL (≈ 142 µM)
- MIC [5]: 128 µg/mL (≈ 283 µM)
- MIC [6]: 128 µg/mL (≈ 283 µM)
- MIC [7]: 128 µg/mL (≈ 283 µM)
- MIC [8]: 16 µg/mL (≈ 35.4 µM)
- MIC [9]: 128 µg/mL (≈ 283 µM)
- MIC [10]: 64 µg/mL (≈ 142 µM)
- MIC [11]: 64 µg/mL (≈ 142 µM)

SMILES: CCOP(=O)(OCC)C(Nc1ccc2c(C)cc(=O)oc2c1)c1ccc(Cl)cc1 (stereo unspecified)
- MIC [1]: 128 µg/mL (≈ 294 µM)
- MIC [2]: 64 µg/mL (≈ 147 µM)
- MIC [3]: 256 µg/mL (≈ 587 µM)
- MIC [4]: 4 µg/mL (≈ 9.18 µM)
- MIC [5]: 128 µg/mL (≈ 294 µM)
- MIC [6]: 64 µg/mL (≈ 147 µM)
- MIC [7]: 128 µg/mL (≈ 294 µM)
- MIC [8]: 16 µg/mL (≈ 36.7 µM)
- MIC [9]: 64 µg/mL (≈ 147 µM)
- MIC [10]: 8 µg/mL (≈ 18.4 µM)
- MIC [11]: 4 µg/mL (≈ 9.18 µM)

SMILES: CCCCc1nc(Cl)c(C(Nc2ccc3c(C)cc(=O)oc3c2)P(=O)(OCC)OCC)[nH]1 (stereo unspecified)
- MIC [1]: 128 µg/mL (≈ 266 µM)
- MIC [2]: 64 µg/mL (≈ 133 µM)
- MIC [3]: 32 µg/mL (≈ 66.4 µM)
- MIC [4]: 16 µg/mL (≈ 33.2 µM)
- MIC [5]: 256 µg/mL (≈ 531 µM)
- MIC [6]: 128 µg/mL (≈ 266 µM)
- MIC [7]: 32 µg/mL (≈ 66.4 µM)
- MIC [8]: 64 µg/mL (≈ 133 µM)
- MIC [9]: 128 µg/mL (≈ 266 µM)
- MIC [10]: 256 µg/mL (≈ 531 µM)
- MIC [11]: 64 µg/mL (≈ 133 µM)

SMILES: CCOP(=O)(OCC)C(Nc1ccc2c(CCl)cc(=O)oc2c1)c1cccc(O)c1 (stereo unspecified)
- MIC [1]: 64 µg/mL (≈ 142 µM)
- MIC [2]: 32 µg/mL (≈ 70.8 µM)
- MIC [3]: 16 µg/mL (≈ 35.4 µM)
- MIC [4]: 16 µg/mL (≈ 35.4 µM)
- MIC [5]: 64 µg/mL (≈ 142 µM)
- MIC [6]: 128 µg/mL (≈ 283 µM)
- MIC [7]: 64 µg/mL (≈ 142 µM)
- MIC [8]: 128 µg/mL (≈ 283 µM)
- MIC [9]: 64 µg/mL (≈ 142 µM)
- MIC [10]: 32 µg/mL (≈ 70.8 µM)
- MIC [11]: 8 µg/mL (≈ 17.7 µM)

SMILES: CCOP(=O)(OCC)C(Nc1ccc2c(C)c(Cl)c(=O)oc2c1)c1cccc(O)c1 (stereo unspecified)
- MIC [1]: 32 µg/mL (≈ 70.8 µM)
- MIC [2]: 64 µg/mL (≈ 142 µM)
- MIC [3]: 16 µg/mL (≈ 35.4 µM)
- MIC [4]: 32 µg/mL (≈ 70.8 µM)
- MIC [5]: 32 µg/mL (≈ 70.8 µM)
- MIC [6]: 128 µg/mL (≈ 283 µM)
- MIC [7]: 128 µg/mL (≈ 283 µM)
- MIC [8]: 64 µg/mL (≈ 142 µM)
- MIC [9]: 32 µg/mL (≈ 70.8 µM)
- MIC [10]: 128 µg/mL (≈ 283 µM)
- MIC [11]: 16 µg/mL (≈ 35.4 µM)

SMILES: CCCCc1nc(Cl)c(C(Nc2ccc3c(C)cc(=O)oc3c2)P(=O)(OCC)OCC)n1CO (stereo unspecified)
- MIC [1]: 2 µg/mL (≈ 3.91 µM)
- MIC [2]: 128 µg/mL (≈ 250 µM)
- MIC [3]: 2 µg/mL (≈ 3.91 µM)
- MIC [4]: 16 µg/mL (≈ 31.3 µM)
- MIC [5]: 128 µg/mL (≈ 250 µM)
- MIC [6]: 16 µg/mL (≈ 31.3 µM)
- MIC [7]: 128 µg/mL (≈ 250 µM)
- MIC [8]: 256 µg/mL (≈ 500 µM)
- MIC [9]: 64 µg/mL (≈ 125 µM)
- MIC [10]: 32 µg/mL (≈ 62.5 µM)
- MIC [11]: 16 µg/mL (≈ 31.3 µM)
